Results as given in patent US8883824B2, “3-(4-aminophenyl)-2-furancarboxylic acid derivative and pharmaceutically acceptable salt thereof” (Sumitomo Dainippon Pharma Co., Ltd., priority 2009, dated 2014).
“Also recorded” adds a separate entry of the source. Counter-ions that a name gives are not always drawn.

Experiments:
[1] = molecular target: T1, glucagon receptor (rat hepatocyte membrane) (Rattus norvegicus, UniProt P30082); test: Glucagon receptor binding inhibition; settings: SD rat liver cell membrane, 50 pM (3-[125I]iodotyrosyl10)glucagon, 25° C., 120 minutes; read-out: IC50 (nM) Rat, glucagon receptor binding inhibitory activity
T1 construct: A cell membrane was prepared from the liver of an SD rat; from tissue; host or cells: SD rat liver (cell membrane fraction)
Experimental: The composition of the reaction solution used in the receptor binding inhibition experiment was prepared according to the method described in Bioorg. Med. Chem. Lett., 1992, 12, 915-918, using the following methods. (3-[^125I] iodotyrosyl^10) Glucagon and a rat hepatocyte membrane were obtained or prepared according to the following methods.
(3-[^125I] iodotyrosyl^10)Glucagon was obtained according to the following method at PerkinElmer Co., Ltd (Great Britain). Using a chloramine T method, glucagon (Peptide Institute) was labeled with [^125I], and (3-[^1251] iodotyrosyl ^10)Glucagon was separated using HPLC. Purchased from PerkinElmer Co., Ltd. (Great Britain), was a product obtained by dissolving it in an aqueous solution containing 10 mM citric acid, 5% lactose, 0.2% cysteine HCl, and 0.25% BSA so that the radioactivity was 3.7 MBq/mL at reference date, followed by freeze-drying. The product was re-dissolved in a 0.3-TIU/mL aprotinin aqueous solution so that the radioactivity was 3.7 MBq/mL at reference date, and it was freeze-stored at −15 to −40° C. for use.
A cell membrane was prepared from the liver of an SD rat according to the method described on pages 31 to 33 of Zikken Seibutsugaku Kouza 6, Saibou bunkakuhou (Experimental Biology Lecture 6, Cell Fraction Method) (Maruzen Co., Ltd.). The resulting cell membrane was freeze-stored at −70 to −85° C. for use.
The cell membrane that had been dissolved at room temperature and then suspended using a Physcotron (Microtec Co., Ltd. was added to a 50-mM Tris-HCl buffer (pH 7.2) containing 1 mg/mL BSA (Sigma-Aldrich), 0.1 mg/mL bacitracin (Wako Pure Chemical Industries, Ltd.), 1% DMSO, 0.01% acetic acid, and 50 pM) (3-[^125I] iodotyrosyl^10) Glucagon (pH 7.2) (each value indicating the final concentration and the radioactivity of (3-[^125I] iodotyrosyl^10) Glucagon calculated on the measurement date) to give a total amount of 0.2 mL. The reaction was started and incubation was performed at 25° C. for 120 minutes. The concentration of the cell membrane was adjusted so that 10% of the added)(3-[^1251] iodotyrosyl^100 Glucagon was equal to the total amount of binding.
Using a GF/C filter (Whatman International Ltd., Great Britain) immersed for more than 15 minutes in 0.3% polyethyleneimine (Sigma-Aldrich, Co., LLC), whose pH was adjusted to 7.2 by adding hydrochloric acid, the reaction solution was subjected to suction filtration to recover (3-[^125I] iodotyrosyl)Glucagon bound to the membrane. The filter was washed 3 times with an ice-cooled 50-mM Tris-HCl buffer (pH 7.4), and the radioactivity of the filter was measured by using a γ counter (1470 WIZARD γ-counter)(Wallac). The amount of specific binding was measured by subtracting the amount of nonspecific binding determined in the presence of 10 μM glucagon (Peptide Institute, Inc.) from the total amount of binding.
The amount of specific binding in the absence of a test compound was regarded as 100%, and inhibitions (%) at various concentrations of test compounds were calculated. The concentration at 50% inhibition of binding (IC50) was calculated using a nonlinear least squares method.

ob/ob mice [2] = test: Blood sugar decrease in ob/ob mice (hyperglycemia and impaired fasting glycemia); format: in vivo
From the text: Effects of the compound of Example 69 on hyperglycemia and impaired fasting glycemia in ob/ob mice, which are type II diabetes models, were examined.
B6.V-Lepob/J (ob/ob) mice and control B6.V-Lepob/J (?/+) mice (male, 6 to 7 weeks old, n=8, Charles River Japan Inc.) were used. To examine the effect on hyperglycemia, feed was removed from the cage at the same time as the start of drug administration, and to examine the effect on impaired fasting glycemia, feed was removed from the cage about 20 hours before the scheduled time of drug administration. Under each experimental condition, the mice were allowed free access to drinking water. 2, 4 and 6 hours after the forced oral administration of the compound (0.01-1.0 mg/kg) of Example 69, which had been suspended in 0.5% methyl cellulose, the blood sugar levels were examined.

ob/ob mice [3] = test: Combination use with DPPIV inhibitor sitagliptin, postprandial hyperglycemia in ob/ob mice; format: in vivo
Experimental: B6.V-Lepob/J (ob/ob) mice and control B6.V-Lepob/J (?/+) mice (male, 6 to 7 weeks old, n=8, Charles River Japan) were used. […] One hour later, liquid food (ensure H, Abbott Japan, Co., Ltd., 1.5 kcal/mL) was orally administered. The blood sugar levels immediately before, and 15, 30, 60, and 90 minutes after administration of the liquid food were measured.

ob/ob mice [4] = test: Combination use with metformin, HbA1c in ob/ob mice; format: in vivo; settings: oral; for HbAlc value: single use, 4 weeks (Example 69 3 mg/kg twice a day; metformin 100 mg/kg twice a day)
Experimental: An experiment using the compound of Example 69 and metformin in combination was performed to examine the effect on the HbAlc value in ob/ob mice.
B6.V-Lepob/J (ob/ob) mice and control B6.V-Lepob/J (?/+) mice (male, 6 to 7 weeks old, n=8, Charles River Japan) were used. The compound of Example 69 (3 mg/kg, twice a day) suspended in 0.5% methyl cellulose, and metformin (100 mg/kg, twice a day) dissolved in the solvent were orally administered repeatedly for 4 weeks singly or in combination.

ob/ob mice [5] = test: Combination use with pioglitazone, HbA1c in ob/ob mice; format: in vivo; settings: oral
Experimental: An experiment using the compound of Example 69 and pioglitazone in combination was performed to examine the effect on the HbAlc values in ob/ob mice.
B6.V-Lepob/J (ob/ob) mice and control B6.V-Lepob/J (?/+) mice (male, 6 to 7 weeks old, n=8, Charles River Japan) were used. The compound of Example 69 suspended in 0.5% methyl cellulose (3 mg/kg, twice a day), and pioglitazone (1 mg/kg, once a day) were orally administered repeatedly for 4 weeks singly or in combination.
The effects were compared based on the […] (HbA1c) value, and a diabetes-like state (prolonged hyperglycemic state) was confirmed by HbA1c increase in the ob/ob mice.

[6] = combination use of Example 69 (0.1 mg/kg) and sitagliptin (5 mg/lm), single oral dose
[7] = single use, single oral dose (Example 69 0.1 mg/kg; sitagliptin 5 mg/lm) one hour before liquid food

T1 sequence (P30082 27-485): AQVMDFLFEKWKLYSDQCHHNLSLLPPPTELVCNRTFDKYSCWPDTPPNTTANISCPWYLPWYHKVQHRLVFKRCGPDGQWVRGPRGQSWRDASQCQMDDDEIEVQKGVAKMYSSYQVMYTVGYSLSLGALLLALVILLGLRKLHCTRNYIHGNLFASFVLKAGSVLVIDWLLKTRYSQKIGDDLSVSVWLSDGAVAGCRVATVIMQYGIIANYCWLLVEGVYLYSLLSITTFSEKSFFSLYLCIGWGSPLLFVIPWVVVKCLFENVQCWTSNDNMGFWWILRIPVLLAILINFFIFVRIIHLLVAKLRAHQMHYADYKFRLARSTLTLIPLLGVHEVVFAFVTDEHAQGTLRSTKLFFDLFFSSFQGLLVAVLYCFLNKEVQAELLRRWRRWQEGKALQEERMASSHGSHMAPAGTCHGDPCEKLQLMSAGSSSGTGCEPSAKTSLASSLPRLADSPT

| IC50 [1] | Structure (SMILES) | other results |
| --- | --- | --- |
| 2800 nM | N#Cc1cc(C(=O)NNC(=O)c2occc2-c2cccc(NC(=O)c3ccccc3)c2)ccc1O [Compound A, reference compound] | – |
| 1200 nM | CC(=O)N(Cc1ccccc1)c1cccc(-c2ccoc2C(=O)NNC(=O)c2ccc(O)c(C#N)c2)c1 [Compound B, reference compound] | – |
| 340 nM | CC(=O)Nc1cccc(-c2ccoc2C(=O)NNC(=O)c2ccc(O)c(C#N)c2)c1 [Compound C, reference compound] | – |
| 400 nM | N#Cc1cc(C(=O)NNC(=O)c2occc2-c2cccc(NC(=O)OCc3ccccc3)c2)ccc1O [Compound D, reference compound] | – |
| 9800 nM | N#Cc1cc(C(=O)NNC(=O)c2occc2-c2cccc(N)c2)ccc1O [Compound E, reference compound] | – |
| 0.22 nM | Cc1ccc(C(C)Nc2ccc(-c3ccoc3C(=O)NNC(=O)c3ccc(O)c([N+](=O)[O-])c3)cc2)cc1 (stereo not drawn) [Example 1, 3-(4-{[1-(4-methylphenyl)ethyl]amino}phenyl)-2-furan carboxylic acid-2-(4-hydroxy-3-nitrobenzoyl)hydrazide hydrochloride] | – |
| 0.13 nM | CC(C)(C)c1ccc(CNc2ccc(-c3ccoc3C(=O)NNC(=O)c3ccc(O)c([N+](=O)[O-])c3)cc2)cc1 [Example 6] | – |
| 0.34 nM | O=C(NNC(=O)c1occc1-c1ccc(NCc2ccc(OC(F)(F)F)cc2)cc1)c1ccc(O)c([N+](=O)[O-])c1 [Example 7] | – |
| 0.11 nM | C[C@H](Nc1ccc(-c2ccoc2C(=O)NNC(=O)c2ccc(O)c([N+](=O)[O-])c2)cc1)c1ccc(F)cc1 [Example 68, 3-(4-{[(1S)-1-(4-fluorophenyl)ethyl]amino}phenyl)-2-furan carboxylic acid-2-(4-hydroxy-3-nitrobenzoyl)hydrazide] | – |
| 0.085 nM | Cc1ccc([C@H](C)Nc2ccc(-c3ccoc3C(=O)NNC(=O)c3ccc(O)c([N+](=O)[O-])c3)cc2)cc1 [Example 69] | duration of the blood sugar decreasing effect (ob/ob mice [2]; high-dose administration, oral): continued even 6 hours after the administration; blood sugar level relative to the healthy (control) mouse (ob/ob mice [2]; oral 0.01-1.0 mg/kg): not reduced to below the level of the healthy mouse; blood sugar decreasing effect at 2 hours after administration (ob/ob mice [2]; oral 0.01-1.0 mg/kg, any dosage, under each experimental condition (hyperglycemia; impaired fasting glycemia)): remarkable blood sugar decreasing effect; area under the blood concentration-time curve (blood sugar) after liquid food (ob/ob mice [3]; [6]): normalized; blood sugar level 15 minutes after the administration of liquid food (ob/ob mice [3]; [6]): normalized; hypoglycemia (ob/ob mice [3]; [6]): without causing hypoglycemia; postprandial hyperglycemia inhibitory effect versus the single use of each agent (ob/ob mice [3]; combination use of Example 69 and sitagliptin (FIGS. 1 and 2)): extremely stronger postprandial hyperglycemia inhibitory effect; area under the blood concentration-time curve (blood sugar) after liquid food (ob/ob mice [3]; [7]): normalized; blood sugar increase 15 minutes after the administration of liquid food (ob/ob mice [3]; [7]): could not normalize; HbAlc reduction effect versus single use (ob/ob mice [4]; combination use of Example 69 (3 mg/kg twice a day) and metformin (100 mg/kg twice a day), 4 weeks): higher HbAlc reduction effect; also recorded: extremely stronger HbAlc reduction effect; HbAlc value (ob/ob mice [4]): HbAlc reduction; HbA1c reduction effect versus single use (ob/ob mice [5]; combination use of Example 69 (3 mg/kg twice a day) and pioglitazone (1 mg/kg once a day), 4 weeks): higher HbA1c reduction effect; also recorded: extremely stronger HbA1c reduction effect; HbA1c value (ob/ob mice [5]; single use, 4 weeks (Example 69 3 mg/kg twice a day; pioglitazone 1 mg/kg once a day)): attained HbA1c reduction |
| 0.13 nM | CCc1ccc([C@H](C)Nc2ccc(-c3ccoc3C(=O)NNC(=O)c3ccc(O)c([N+](=O)[O-])c3)cc2)cc1 [Example 70] | – |
| 0.043 nM | Cc1ccc([C@H](C)Nc2ccc(-c3ccoc3C(=O)NNC(=O)c3ccc(O)c([N+](=O)[O-])c3)cc2)cc1C [Example 71] | – |
| 0.14 nM | C[C@H](Nc1ccc(-c2ccoc2C(=O)NNC(=O)c2ccc(O)c([N+](=O)[O-])c2)cc1)c1ccc(Cl)cc1 [Example 72] | – |
| 0.16 nM | Cc1cccc([C@H](C)Nc2ccc(-c3ccoc3C(=O)NNC(=O)c3ccc(O)c([N+](=O)[O-])c3)cc2)c1 [Example 73] | – |
| 0.12 nM | Cc1cc([C@H](C)Nc2ccc(-c3ccoc3C(=O)NNC(=O)c3ccc(O)c([N+](=O)[O-])c3)cc2)ccc1Cl [Example 75] | – |
| 5.8 nM | C[C@@H](Nc1ccc(-c2ccoc2C(=O)NNC(=O)c2ccc(O)c([N+](=O)[O-])c2)cc1)c1ccc(F)cc1 [Example 76] | – |
| 0.35 nM | C[C@H](Nc1ccc(-c2ccoc2C(=O)NNC(=O)c2ccc(O)c([N+](=O)[O-])c2)cc1)C1CCCCC1 [Example 77] | – |
| 0.62 nM | C[C@H](Nc1ccc(-c2ccoc2C(=O)NNC(=O)c2ccc(O)c([N+](=O)[O-])c2)cc1)c1ccccc1 [Example 78] | – |
| 0.74 nM | C[C@H](Nc1ccc(-c2ccoc2C(=O)NNC(=O)c2ccc(O)c(C#N)c2)cc1)c1ccc(F)cc1 [Example 79, 3-(4-{[(1S)-1-(4-fluorophenyl)ethyl]amino}phenyl)-2-furan carboxylic acid-2-(3-cyano-4-hydroxybenzoyl)hydrazide] | – |
| – | CN(C)C(=N)N=C(N)N [metformin, reference compound] | HbAlc value (ob/ob mice [4]): HbAlc reduction |
